# Values quoted from earlier work, collected in US20210040357A1, “ELECTROCONDUCTIVE ADHESIVE COMPOSITION, CURED PRODUCT OF ELECTROCONDUCTIVE ADHESIVE, AND ELECTRONIC DEVICE” (TANAKA KIKINZOKU KOGYO K.K., priority 2018, published 2021).
row,Acid dissociation constant pKa,Compound
1,about 5.0,CCCCCCCCCCCCCCCCCC(=O)O [Stearic acid]
2,4.64,CC(C)C1=CC2=CC[C@@H]3[C@](C)(CCC[C@@]3(C)C(=O)O)[C@H]2CC1 [Abietic acid]
3,about 5.0,CCCCCCCC/C=C\CCCCCCCC(=O)O [oleic acid]
